Assay results from PMC8253140 (Drug Delivery, 2017).
Like-named read-outs stand apart in the source and are kept apart here. Residues, ends and D or L forms follow the SMILES beside them. No end group written: not given here. *: point of attachment. Paclitaxel(2'-O-succinyl) = CC(=O)O[C@H]1C(=O)[C@@]2(C)[C@H]([C@H](OC(=O)c3ccccc3)[C@]3(O)C[C@H](OC(=O)[C@H](OC(=O)CCC(=O)*)[C@@H](NC(=O)c4ccccc4)c4ccccc4)C(C)=C1C3(C)C)[C@]1(OC(C)=O)CO[C@@H]1C[C@@H]2O

Experiments:
A549 cells [1] = assay: Cytotoxicity study, MTT colorimetric assay; conditions: for cell viability / IC50 value as % of the IC50 of PTX: 24 h; for IC50 value as % of the IC50 of PTX: GraphPad Prism, p < 0.01 vs PTX
Protocol: The inhibitory activities of the drug samples on cell growth were evaluated using a 3-(4,5-dimethylthiazol-2-yl)-2,5-diphenyltetrazolium bromide (MTT) colorimetric assay. A549 and A549T cells were harvested by trypsinization and resuspended at a concentration of 2 × 10^4 cells/mL in fresh culture medium. Then, the cells were seeded at a density of 5000 cells per well in 96-well plates. […] The concentration of the drugs ranged from 0.1 μM to 100 μM. After 24 h of incubation, the drug-containing media were abandoned, and 20 μL of MTT (5 mg/mL) solution was added to each well. The plate was incubated for an additional 4 h, and then, […] of DMSO was added to each well to dissolve any formed purple formazan crystals. The plates were vigorously shaken before measuring the relative color intensity. The absorbance at 570 nm of each well was measured with a plate reader.

A549T cells [2] = assay: Cytotoxicity study, MTT colorimetric assay; assay type: cell-based; conditions: for IC50 value as % of the IC50 of PTX: GraphPad Prism, p < 0.01 vs PTX
Protocol: The inhibitory activities of the drug samples on cell growth were evaluated using a 3-(4,5-dimethylthiazol-2-yl)-2,5-diphenyltetrazolium bromide (MTT) colorimetric assay. A549 and A549T cells were harvested by trypsinization and resuspended at a concentration of 2 × 10^4 cells/mL in fresh culture medium. Then, the cells were seeded at a density of 5000 cells per well in 96-well plates. […] The concentration of the drugs ranged from 0.1 μM to 100 μM. After 24 h of incubation, the drug-containing media were abandoned, and 20 μL of MTT (5 mg/mL) solution was added to each well. The plate was incubated for an additional 4 h, and then, 200 mL of DMSO was added to each well to dissolve any formed purple formazan crystals. The plates were vigorously shaken before measuring the relative color intensity. The absorbance at 570 nm of each well was measured with a plate reader.

A549 cells [3] = assay: Cell apoptosis detection, annexin V-FITC/PI flow cytometry; assay type: cell-based; conditions: 10 μM, 48 h, triplicate
Protocol: (§1) Cell apoptosis was determined by an annexin V-FITC/PI assay. The externalization of phosphatidylserine, a result of early stage apoptosis, was detected by FITC-annexin V protein staining, and the membrane damage due to late-stage apoptosis was detected by the binding of PI to nuclear DNA. Briefly, 2 × 10^5 A549 and A549T cells were plated in 6-well plates and incubated for 24 h. After exposure to the different drugs at a concentration of 10 μM for 48 h, the cells were harvested by trypsinization, washed in PBS twice and incubated in the dark for 10 min at room temperature in 500 μL of binding buffer containing annexin V-FITC (1 μg/mL) and PI (1 μg/mL). The cells were immediately analyzed by flow cytometry (Becton Dickinson, Franklin Lakes, NJ). The fluorescence intensity of annexin V-FITC was measured at an excitation/emission wavelength of 488/530 nm and that of PI was measured at an excitation/emission wavelength of 488/617 nm. Approximately 10 000 cells were analyzed in each of the samples. Each assay was repeated in triplicate.

A549 cells [4] = assay: Cell-cycle analysis, PI flow cytometry; assay type: cell-based; conditions: 5 μM, 48 h, triplicate
Protocol: (§2) After that, the cells were harvested by trypsinization, washed in PBS twice, and fixed in 70% cold ethanol for 24 h at 4 °C. The fixed cells were washed in cold PBS and then resuspended in 0.5 mL of PBS containing 50 μg/mL PI, 0.1% Triton-X-100, 0.1% sodium citrate, and 100 μg/mL RNase. After incubation at 4 °C in the dark for 30 min, the fluorescence-activated cells were sorted. The cellular DNA content was analyzed by flow cytometry (Becton Dickinson, Franklin Lakes, NJ). Each analysis contained at least 10 000 cells. […] The percentages of cells in different cell cycle phases were then recorded. Each experiment was performed in triplicate, and the results were expressed as the mean ± SD.

A549T cells [5] = assay type: cell-based; conditions: 5 μM, 48 h, triplicate
Protocol: as §2

A549 tumor = assay type: in vivo, BALB/c nude mice; conditions: A549 tumor-bearing nude mice, 1000 μM, 100 μL, peritumoral injection three times over 8 d; for tumor inhibition rate: tumors dissected and weighed after 24 or 30 d; for tumor inhibition rate / decrease of tumor volume compared with PTX: six mice per group; for decrease of tumor volume compared with PTX: from 22 to 30 d
Excerpt: (§3) The protocol to evaluate the in vivo antitumor efficacy of the PTX-CPP conjugates was approved by the ethics committee of Fudan University. Four-week-old female BALB/c nude mice were purchased and housed in the Animal Care Facilities in the School of Pharmacy, Fudan University. BALB/c mice bearing subcutaneous tumors were used as an animal model for the evaluation of the anticancer activities of PTX-LMWP and PTX-TAT. The subcutaneous tumor xenograft model was established by inoculating 2 × 10^6 A549 or A549T cells (in 100 μL of cell culture medium) into the subcutaneous tissue of the armpit of the right anterior limb (Gu et al., [2014]). Tumor size was measured with Vernier calipers for the largest (length) and smallest (width) superficial visible diameters of the protruding tumor mass through the skin. Tumor volumes were calculated according to the following formula: volume = 0.52 × W^2×L, where W and L represent the width and the length, respectively (Lee et al., [2011]). The drugs were administered 2 weeks after tumor implantation, when the size of the tumors reached approximately 100–150 mm^3. […] Each experimental group contained six mice. The mice were treated (100 μL volume) three times over 8 d via peritumoral injection. Tumor volumes were measured at 2-d intervals. At the end of the experiment, the mice were sacrificed, and necropsies were performed. The tumors were removed, weighed and fixed with formalin.

A549T tumor = assay type: in vivo, BALB/c nude mice; conditions: 1000 μM
Excerpt: as §3

A549 cells [6] = assay: Cellular uptake assay (intracellular drug accumulation); assay type: cell-based; conditions: 20 μM, incubation 15 min to 4 h, UPLC
Protocol: The cellular uptake experiment was implemented basing on the protocol designed by Meng with some modifications (Meng et al., [2011]). Briefly, A549 and A549T cells were cultivated in chambered 24-well plates with 5% CO2 at 37 °C for 48 h. Then, the adherent cells were washed twice with PBS. Each of the three drugs was diluted in cell medium at concentrations of 10 μM and 20 μM and added to the chambers. The cells were incubated for 2 h and washed four times with PBS after incubation. After that, the cells were scraped from the wells and quantitatively transferred to Eppendorf centrifuge tubes. The resulting cell/saline suspensions were sonicated for 20 cycles of 2 s each with 2 s of rest between each cycle using a probe sonicator. The lysed cell solution was centrifuged at 7000 g for 30 min at 4 °C. Then, 100 μL of the supernatant was withdrawn carefully and tested with UPLC (BEH C18, 1.7 μm, 2.1 × 50 mm). The flow rate was 0.3 mL/min, and the mobile phase consisted of 55% solvent A (PBS, pH = 5) and 45% solvent B (acetonitrile). To further test the change in cellular uptake against incubation time, the drugs (20 μM) were added to the cells, and the cells were then incubated for different times, ranging from 15 min to 4 h. The other steps of the experiment were performed as described above.

A549T cells [7] = assay: Cell apoptosis detection, annexin V-FITC/PI flow cytometry; assay type: cell-based; conditions: 10 μM, 48 h, triplicate
Protocol: as §1

A549T cells [8] = assay: Mitochondrial membrane potential (Δψm) determination, JC-1 flow cytometry; assay type: cell-based; conditions: 10 μM, 48 h, triplicate
Protocol: Changes in the mitochondrial membrane potential (Δψm) were detected using JC-1 and analyzed with flow cytometry. Briefly, A549 and A549T cells were seeded at a density of 1 × 10^5 cells/mL in 6-well plates and exposed to the drugs (10 μM) for 48 h. The control experiments were performed by adding only culture medium. Then, the cells were harvested by trypsinization, washed in PBS twice, incubated with JC-1 ([…]) at 37 °C for 10 min in the dark, and finally analyzed by flow cytometry (Becton Dickinson, Franklin Lakes, NJ). Each assay was repeated in triplicate. JC-1 accumulates in mitochondria that have a high membrane potential and then dimerizes due to the high local concentrations achieved. Dimerized JC-1 emits red fluorescence, while monomeric JC-1 emits green fluorescence. The results are expressed as a ratio of red to green fluorescence.

[9] = A549T tumor-bearing nude mice, 100 μL, peritumoral injection three times over 8 d

Compound	percentage of late apoptotic cells (PI+/annexin V+) (A549 cells [3]) [%]	effect on cell-cycle distribution (A549T cells [5])	tumor inhibition rate (A549 tumor) [%]	tumor growth (tumor volume) compared with the control (A549T tumor; [9])	IC50 value as % of the IC50 of PTX (A549 cells [1]; A549 cells, MTT) [%]	IC50 value as % of the IC50 of PTX (A549T cells [2]; A549T cells, MTT, 24 h) [%]	percentage of early apoptotic cells (PI−/annexin V+) (A549T cells [7]) [%]	percentage of late apoptotic cells (PI+/annexin V+) (A549T cells [7]) [%]	decrease of tumor volume compared with PTX (A549 tumor)	tumor inhibition rate (A549T tumor; mouse, in vivo) [%]	further results
CC(=O)O[C@H]1C(=O)[C@@]2(C)[C@H]([C@H](OC(=O)c3ccccc3)[C@]3(O)C[C@H](OC(=O)[C@H](O)[C@@H](NC(=O)c4ccccc4)c4ccccc4)C(C)=C1C3(C)C)[C@]1(OC(C)=O)CO[C@@H]1C[C@@H]2O [PTX, Paclitaxel, reference compound]	13.03	a large number of A549T cells were induced into tetraploids	31.06	no significant difference in the tumor volumes between the control and PTX groups	–	–	–	–	–	–	cell viability (A549 cells [1]; A549 cells, MTT, concentration below 1 nM): higher than 80%; cell viability (A549 cells [1]; A549 cells, MTT, concentrations from 100 nM to 100 000 nM): 40%; effect on cell viability (A549T cells [2]; A549T cells, MTT, 24 h, concentrations below 1000 nM): no effect on cell viability; effect on cell-cycle distribution (A549 cells [4]): substantially increased the percentages of cells in G2/M phase cell-cycle arrest; tumor growth (tumor volume) compared with the control (A549 tumor): significant antitumor effect; tumor inhibition rate (A549T tumor; A549T tumor-bearing nude mice, 100 μL, peritumoral injection three times over 8 d, tumors dissected and weighed after 24 or 30 d, six mice per group): 11.0%
CC(=O)O[C@H]1C(=O)[C@@]2(C)[C@H]([C@H](OC(=O)c3ccccc3)[C@]3(O)C[C@H](OC(=O)[C@H](OC(=O)CCC(=O)N[C@H](C(=O)N[C@@H](CO)C(=O)N[C@@H](CCCNC(=N)N)C(=O)N[C@@H](CCCNC(=N)N)C(=O)N[C@@H](CCCNC(=N)N)C(=O)N[C@@H](CCCNC(=N)N)C(=O)N[C@@H](CCCNC(=N)N)C(=O)N[C@@H](CCCNC(=N)N)C(=O)NCC(=O)NCC(=O)N[C@@H](CCCNC(=N)N)C(=O)N[C@@H](CCCNC(=N)N)C(=O)N[C@@H](CCCNC(=N)N)C(=O)N[C@@H](CCCNC(=N)N)C(=O)O)C(C)C)[C@@H](NC(=O)c4ccccc4)c4ccccc4)C(C)=C1C3(C)C)[C@]1(OC(C)=O)CO[C@@H]1C[C@@H]2O [PTX-LMWP] ({Paclitaxel(2'-O-succinyl)}-VSRRRRRRGGRRRR-OH; N-terminus and C-terminus assumed)	84.03	limited generation of tetraploids but a large number of cells in diploid-S phase cell-cycle arrest	62.92	considerable antitumor effect	33.5	21.5	38.10	55.75	1.45–1.80 fold	43.13	cellular uptake against incubation time (A549 cells [6]): stronger than that of PTX-TAT; IC50 value compared with PTX-TAT (A549T cells [2]; A549T cells, MTT, p < 0.01): remarkably lower than that of PTX-TAT; effect on mitochondrial membrane potential (Δψm), ratio of red to green JC-1 fluorescence (A549T cells [8]): significant breakdown of the Δψm compared with the PTX-TAT treatment
CC(=O)O[C@H]1C(=O)[C@@]2(C)[C@H]([C@H](OC(=O)c3ccccc3)[C@]3(O)C[C@H](OC(=O)[C@H](OC(=O)CCC(=O)NCCN4C(=O)CC(SC[C@H](N)C(=O)NCC(=O)NCC(=O)NCC(=O)N[C@@H](Cc5ccc(O)cc5)C(=O)NCC(=O)N[C@@H](CCCNC(=N)N)C(=O)N[C@@H](CCCCN)C(=O)N[C@@H](CCCCN)C(=O)N[C@@H](CCCNC(=N)N)C(=O)N[C@@H](CCCNC(=N)N)C(=O)N[C@@H](CCC(N)=O)C(=O)N[C@@H](CCCNC(=N)N)C(=O)N[C@@H](CCCNC(=N)N)C(=O)N[C@@H](CCCNC(=N)N)C(=O)O)C4=O)[C@@H](NC(=O)c4ccccc4)c4ccccc4)C(C)=C1C3(C)C)[C@]1(OC(C)=O)CO[C@@H]1C[C@@H]2O (stereo partly shown) [PTX-TAT]	72.57	higher tetraploid-G2/M phase arrest than those incubated with PTX	63.32	considerable antitumor effect	47.2	39.5	23.15	54.20	1.51–1.77 fold	42.47	–
N=C(N)NCCC[C@H](NC(=O)[C@H](CCCNC(=N)N)NC(=O)[C@H](CCCNC(=N)N)NC(=O)[C@H](CCC(N)=O)NC(=O)[C@H](CCCNC(=N)N)NC(=O)[C@H](CCCNC(=N)N)NC(=O)[C@H](CCCCN)NC(=O)[C@H](CCCCN)NC(=O)[C@H](CCCNC(=N)N)NC(=O)CNC(=O)[C@H](Cc1ccc(O)cc1)NC(=O)CNC(=O)CNC(=O)CNC(=O)[C@@H](N)CS)C(=O)O [TAT, reference compound]	–	–	–	–	–	–	–	–	–	–	toxicity of the CPPs alone (cell viability) (A549 cells [1]; A549 cells, MTT, same molar concentrations as PTX): No harmful effect; toxicity of the CPPs alone (cell viability) (A549T cells [2]; A549T cells, MTT, same molar concentrations as PTX): No harmful effect
VSRRRRRRGGRRRR [LMWP, reference compound]	–	–	–	–	–	–	–	–	–	–	toxicity of the CPPs alone (cell viability) (A549 cells [1]): No harmful effect; toxicity of the CPPs alone (cell viability) (A549T cells [2]): No harmful effect
